Experimental data from patent publication US10017495B2, “Therapeutically active compounds and their methods of use” (AGIOS PHARMACEUTICALS, INC, priority 2013, dated 2018).

Tests used:
IDH2 R140Q = target: T1, IDH2 R140Q (Homo sapiens, UniProt P48735, R140Q); assay: IDH2 R140Q enzymatic assay (cofactor depletion assay, diaphorase/resazurin readout); format: biochemical; details: read-out: Enz R140Q
T1 sequence (P48735 40-452 R140Q): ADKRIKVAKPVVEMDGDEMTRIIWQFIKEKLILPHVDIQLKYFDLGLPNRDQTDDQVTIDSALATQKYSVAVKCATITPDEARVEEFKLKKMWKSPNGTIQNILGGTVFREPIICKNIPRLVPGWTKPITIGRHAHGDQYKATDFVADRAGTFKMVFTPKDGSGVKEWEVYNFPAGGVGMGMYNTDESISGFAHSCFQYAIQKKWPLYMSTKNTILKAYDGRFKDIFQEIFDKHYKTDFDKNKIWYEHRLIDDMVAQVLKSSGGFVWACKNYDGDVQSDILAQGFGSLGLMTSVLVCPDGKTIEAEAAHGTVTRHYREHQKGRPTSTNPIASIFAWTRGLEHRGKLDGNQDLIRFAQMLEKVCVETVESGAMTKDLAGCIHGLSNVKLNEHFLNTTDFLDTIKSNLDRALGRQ
Procedure: [The source words this procedure for another variant and says it was used here with some conditions changed.] Compounds are assayed for IDH2 R172K inhibitory activity through a cofactor depletion assay. […] The reaction is terminated by the addition of a second enzyme, diaphorase, and a corresponding substrate, resazurin. Diaphorase reduces resazurin to the highly fluorescent resorufin with the concomitant oxidation of NADPH to NADP, both halting the IDH2 reaction by depleting the available cofactor pool and facilitating quantitation of the amount of cofactor remaining after a specific time period through quantitative production of an easily detected fluorophore.
The test compound is then incubated for one hour at room temperature with the enzyme; before starting the IDH2 reaction with the addition of 10 μl of substrate mix containing 50 μM NADPH and 6.3 mM α-KG in the buffer described above. After a further one hour of incubation at room temperature, the reaction is halted and the remaining NADPH measured through conversion of resazurin to resorufin by the addition of 25 μl Stop Mix (36 μg/ml diaphorase enzyme and 60 μM resazurin; in buffer). After one minute of incubation the plate is read on a plate reader at Ex544/Em590.

[1] = tested on: U87MG pLVX-IDH2 R140Q-neo cells; assay: U87MG pLVX-IDH2 R140Q-Neo cell based assay (2-HG in media by LC-MS); details: 48 hours; for IC50: Homo sapiens, U-87 MG
Procedure: U87MG pLVX-IDH2 R140Q-Neo Cell Based Assay.
U87MG pLVX-IDH2 R140Q-neo cells are grown in T125 flasks in DMEM containing 10% FBS, 1× penicillin/streptomycin and 500 μg/mL G418. They are harvested by trypsin and seeded into 96 well white bottom plates at a density of 5000 cell/well in 100 μl/well in DMEM with 10% FBS. No cells are plated in columns 1 and 12. Cells are incubated overnight at 37° C. in 5% CO2. The next day compounds are made up at 2× concentration and 100 ul are added to each cell well. The final concentration of DMSO is 0.2% and the DMSO control wells are plated in row G. The plates are then placed in the incubator for 48 hours. At 48 hours, 100 ul of media is removed from each well and analyzed by LC-MS for 2-HG concentrations. The cell plate is placed back in the incubator for another 24 hours. At 72 hours post compound addition, 10 mL/plate of Promega Cell Titer Glo reagent is thawed and mixed. The cell plate is removed from the incubator and allowed to equilibrate to room temperature. Then 100 ul of reagent is added to each well of media. The cell plate is then placed on an orbital shaker for 10 minutes and then allowed to sit at room temperature for 20 minutes. The plate is then read for luminescence with an integration time of 500 ms to determine compound effects on growth inhibition.

Row | SMILES | IC50 (IDH2 R140Q) | IC50 [1] | Cell R140Q [1]
1 | CC(C)Nc1nc(Nc2ccnc(C(F)(F)F)c2)nc(C2CCC2)n1 [Compound 5, 6-cyclobutyl-N2-isopropyl-N4-(2-(trifluoromethyl)pyridin-4-yl)-1,3,5-triazine-2,4-diamine] | < 100 nM | 100 to 1000 nM | 
2 | CC(C)Nc1nc(Nc2ccnc(C(F)(F)F)c2)nc(C(C)(C)C)n1 [Compound 3, 6-(tert-butyl)-N2-isopropyl-N4-(2-(trifluoromethyl)pyridin-4-yl)-1,3,5-triazine-2,4-diamine] | 100 to 1000 nM | 100 to 1000 nM | 
3 | CC(C)Nc1nc(Nc2ccnc(C(F)(F)F)c2)nc(C2CCCC2)n1 [Compound 4, 6-cyclopentyl-N2-isopropyl-N4-(2-(trifluoromethyl)pyridin-4-yl)-1,3,5-triazine-2,4-diamine] | < 100 nM | 100 to 1000 nM | 
4 | CC(C)Nc1nc(Nc2ccnc(C(F)(F)F)c2)nc(C2=CC(=O)CCC2)n1 [Compound 6, 3-(4-(isopropylamino)-6-((2-(trifluoromethyl)pyridin-4-yl)amino)-1,3,5-triazin-2-yl)cyclohex-2-enone] | 100 to 1000 nM | < 100 nM | 
5 | CC(C)Nc1nc(Nc2ccnc(C(F)(F)F)c2)nc(C2CCCCC2)n1 [Compound 2] | < 100 nM | < 100 nM | 
6 | CC(C)Nc1nc(Nc2ccnc(C(F)(F)F)c2)nc(C2CCCC(=O)C2)n1 (stereo not shown) [Compound 8, 3-(4-(isopropylamino)-6-((2-(trifluoro-methyl)pyridin-4-yl)amino)-1,3,5-triazin-2-yl)cyclohexanone] | 100 to 1000 nM | < 100 nM | 
7 | CC1CCCC(c2nc(Nc3ccnc(C(F)(F)F)c3)nc(NC(C)C)n2)C1 (stereo not shown) [Compound 9] | < 100 nM | 100 to 1000 nM | 
8 | CC(C)Nc1nc(Nc2ccnc(C(F)(F)F)c2)nc(C2=CCCCC2)n1 [Compound 1, 6-(cyclohex-1-en-1-yl)-N2-isopropyl-N4-(2-(trifluoromethyl)pyridin-4-yl)-1,3,5-triazine-2,4-diamine] | < 100 nM | < 100 nM | 
9 | CC(C)Nc1nc(Nc2ccnc(C(F)(F)F)c2)nc(C2=CC(O)CCC2)n1 (stereo not shown) [Compound 7, 3-(4-(isopropylamino)-6-((2-(trifluoromethyl)pyridin-4-yl)amino)-1,3,5-triazin-2-yl)cyclohex-2-enol] | < 100 nM | < 100 nM | 

Second part, led by results:

Row | IC50 (IDH2 R140Q) | IC50 [1] | SMILES | Cell R140Q [1]
10 | < 100 nM | 100 to 1000 nM | CC(C)Nc1nc(Nc2ccnc(C(F)(F)F)c2)nc(C2=CC(=O)NCC2)n1 [Compound 12] | 
11 | 1000 to 10000 nM |  | CC(C)Nc1nc(Nc2ccnc(C(F)(F)F)c2)nc(C2CCNC(=O)C2)n1 (stereo not shown) [Compound 13] | No fit
12 | < 100 nM | < 100 nM | CC(C)Nc1nc(Nc2ccnc(C(F)(F)F)c2)nc(C2CCCC(O)C2)n1 (stereo not shown) [Compound 11, 3-(4-(isopropylamino)-6-((2-(trifluoromethyl)pyridin-4-yl)amino)-1,3,5-triazin-2-yl)cyclohexanol] | 
13 | 100 to 1000 nM |  | CC1CC(C)CC(c2nc(Nc3ccnc(C(F)(F)F)c3)nc(NC(C)C)n2)C1 (stereo not shown) [Compound 10] | 
